Assay results taken from publication PMC11926880, “Procognitive Potential of Neuroprotective Triazine 5-HT6 Receptor Antagonists Tested on Chronic Activity In Vivo in Rats: Computer-Aided Insight into the Role of Chalcogen-Differences on the Pharmacological Profile” (ACS Chemical Neuroscience, 2025).
Read-outs that look alike come from different tables or passages of the source.

Key:
SH-SY5Y cells [1] = experiment: MTS assay 72 h, neurotoxic effect; type: cell-based, human; settings: 10 and 50 μM
Procedure: SHSY5Y cells were grown in DMEM supplemented by 10% FBS, L-glutamine (2 mM), and penicillin (100u/mL)/streptomycin (100 μg/mL). The cell line was tested for mycoplasma using DAPI staining and the LookOut Mycoplasma PCR Detection Kit (MP0035, Merck). The cell line was authenticated after thawing by a morphology check, cell proliferation rate evaluation, and species verification by PCR. Bacteria contamination was excluded. […] Subsequently, cells were subjected to a CellTiter 96 AQueous One Solution Cell Proliferation Assay (Promega), according to the manufacturer’s protocol. The absorbance at 490 nm was evaluated to estimate the cell number.

SH-SY5Y cells [2] = experiment: ROS assay (2',7'DCFH2-DA), rotenone-induced neurotoxicity; type: cell-based, human
Procedure: The ROS measurement was assayed by 2′,7′-dichlorofluorescin diacetate (2′, 7′DCFH2-DA, Sigma, no. D6883). The protocol was previously described in detail.[10] […] The following day, all treatments were carried out with warmed HBSS containing 25 mM HEPES (hereafter referred to as HBSS), and during the operational steps, the cells were kept at 37 °C to minimize temperature stress.

SH-SY5Y cells [3] = experiment: qRT-PCR of neurodegeneration-associated genes; type: cell-based, human; settings: 10 and 50 μM, 24 h
HT-22 cell line [4] = experiment: protection against Aβ1–42, cell membrane damage (ToxiLight); type: cell-based, mouse; settings: 10 μM pretreatment 1 h, Aβ1–42 35 μM 16 h
Procedure: Cells were cultured in Dulbecco’s modified Eagle’s Medium-high glucose (DMEM, GlutaMAX ThermoFisher) supplemented with 10% inactivated fetal bovine serum heat (Thermo Fisher), 100 IU/mL penicillin (Merck), and 100 μg/mL streptomycin (Merck). Cells were cultured in flasks (area 175 cm^2, Nunc) and incubated at 37 °C, 5% CO2. To measure the neuroprotective effect against Aβ1–42, cells were placed in a 96-well culture plate (5 × 10^3 cells per well, Falcon). To measure the toxicity of tested compounds, cells were placed in a 96-well culture plate (5 × 10^3 and 2 × 10^4 cells per well, Falcon).
Stock solutions were prepared at a concentration of 10 mM for the tested compounds. A minimum of 1 mg of each tested compound was weighed and dissolved in an appropriate volume of dimethyl sulfoxide (DMSO). Serial dilutions were prepared in DMSO, and then, the diluted compounds were transferred to phosphate-buffered saline (PBS), mixed, and put into a medium with adherent cells. Before the assays, eventual precipitation or opalescence was checked. […]
Then, 20 μL of adenylate kinase detection reagent was added. The luminescence was measured after 10 min of incubation with a plate reader, POLARstar Omega (BMG Labtech). The results are expressed as a percentage of the control (Aβ1–42), corresponding to the percentage of dead cells concerning the control sample.

HT-22 cell line [5] = experiment: protection against Aβ1–42, ROS (CellROX); type: cell-based, mouse; settings: 10 μM pretreatment 1 h, Aβ1–42 35 μM 16 h
Procedure: Cells were cultured in Dulbecco’s modified Eagle’s Medium-high glucose (DMEM, GlutaMAX ThermoFisher) supplemented with 10% inactivated fetal bovine serum heat (Thermo Fisher), 100 IU/mL penicillin (Merck), and 100 μg/mL streptomycin (Merck). Cells were cultured in flasks (area 175 cm^2, Nunc) and incubated at 37 °C, 5% CO2. To measure the neuroprotective effect against Aβ1–42, cells were placed in a 96-well culture plate (5 × 10^3 cells per well, Falcon).
Stock solutions were prepared at a concentration of 10 mM for the tested compounds. A minimum of 1 mg of each tested compound was weighed and dissolved in an appropriate volume of dimethyl sulfoxide (DMSO). Serial dilutions were prepared in DMSO, and then, the diluted compounds were transferred to phosphate-buffered saline (PBS), mixed, and put into a medium with adherent cells. Before the assays, eventual precipitation or opalescence was checked.
Aβ1–42 (Merck) was initially dissolved in 1,1,1,3,3,3- hexafluor-2-propanol (Merck). […] After this time, the Aβ1–42 solution was evaporated by using nitrogen gas. Next, DMSO was added to obtain a 2 mM stock solution of β-amyloid. […]
After the end of incubation with the tested compounds, the supernatant was removed, and cells were incubated with CellROX (5 μM) in DMEM FluoroBrite (ThermoFisher) for 1 h at 37 °C. The results are expressed as a percentage of control (Aβ1–42).

[6] = pharmacokinetics in serum after single i.p. administration; type: in vivo, rat; settings: for Vd/F: read-out: Vz/F; for half-life: read-out: t1/2λz
Procedure: Standard laboratory food (LSM-B) and filtered water as well as environment enrichment were freely available. Animals were randomly divided into treatment groups using a computer-based random order generator. All of the experiments were performed by two observers unaware of the treatment applied between 9:00 and 14:00 on separate groups of animals.
Rats were injected with the investigated compounds once (in pharmacokinetic studies) and for 21 days (in behavioral studies), and afterward, behavioral tests were conducted and tissue collection was done, as required. For pharmacokinetic studies, animals were fasted prior to dosing by withholding food but not water overnight. After dosing, the food was withheld for an additional 8 h. All animals were used only once. Animals were handled every day and weighed every other day in the chronic part of the experiment. Procedures involving animals and their care were conducted in accordance with current European Community and Polish legislations on animal experimentation. Additionally, all efforts were made to minimize animals’ suffering and to use only the number of animals necessary to produce reliable scientific data. […] The research program complies with the commonly accepted ‘3Rs’ (replacement and reduction of animals, refinement of experimental conditions, and procedures to minimize the harm to animals).
Moreover, five tissues (i.e., brain, heart, lungs, kidneys, and liver) were harvested and rinsed with cold saline. Blood was allowed to clot at room temperature for 15–20 min and then centrifuged (3000 rpm for 10 min). The obtained serum and tissues were stored at −80 °C until analysis.
Peak areas were integrated automatically using an EZChrome Elite v. 3.3.2 software (VWR, Darmstadt, Germany) chromatographic workstation.
The mobile phase consisting of methanol −10 mM potassium dihydrogen phosphate buffer (pH 4.6) and acetonitrile (51:40:9, v/v/v) was passed under vacuum through a 0.22 μm filter membrane.
Before analysis, tissue samples were thawed, weighed (200–250 mg), and placed in 5 mL plastic tubes with four volumes (w/v) of PBS (pH 7.4) and homogenized individually using a MICCRA D-1 homogenizer (ART Prozess & Labortechnik GmbH & Co., Germany). Serum (500 μL) or homogenate samples (500 μL) were mixed with an IS solution ((RS)-4-(4-methylpiperazin-1-yl)-6-(1-phenoxypropyl)-1,3,5-triazin-2-amine), 50 ng/mL in methanol. The samples were alkalized with 50 μL of 4 M sodium hydroxide solution, vortex-mixed, and extracted with 1 mL of ethyl acetate/hexane (30/70, v/v) mixture on a shaker (VXR Vibrax, IKA, Germany) for 20 min. After centrifugation (Eppendorf, Mini Spin Plus, Bionovo, Poland), the organic layers were transferred into new Eppendorf tubes containing 100 μL of methanol and 0.1 M sulfuric acid (10/90, v/v) mixture. Then, the samples were shaken and centrifuged again. Finally, 60–90 μL of each acidic layer was injected into the HPLC system.
The method was validated according to the procedures and acceptance criteria recommended for bioanalytical method validation for pharmacokinetic studies.[45]
The serum concentration–time data were analyzed by a noncompartmental method using the WinNonlin 8.2 nonlinear least-squares regression program (Pharsight Corporation, a Certara Company, Princeton, NJ, USA) to obtain pharmacokinetic parameters. […] The area under the serum concentration–time curve from time zero to time t (AUC0–t), where t is the time of the last measurable sample, was calculated according to the linear trapezoidal rule. The AUC from time zero to infinity (AUC0–∞) was estimated as AUC0–t + Ct/λz, where Ct was the serum concentration of the last measurable sample. The clearance (CL/F) was calculated as D/AUC0–∞, and the volume of distribution based on the terminal phase (Vz/F) was estimated as D/(λz·AUC0–∞), where F is the bioavailability of intraperitoneal administration.

[7] = set-up: method as in PMID 38190615, PMID 35228010; settings: cited from earlier work
[8] = set-up: method as in PMID 38190615, PMID 35228010; settings: LC/MS after biotransformation in rLMs; cited from earlier work
HepG2 = test system: HepG2; set-up: method as in PMID 38190615, PMID 35228010; settings: tested at 0.1–100 μM; cited from earlier work
[9] = set-up: method as in PMID 38190615, PMID 35228010; settings: AMES test; cited from earlier work
rats = settings: acute administration, male Wistar rats, (+)MK-801; cited from earlier work
[10] = 1.0 mg/kg i.p., single, 1 mg/kg
[11] = male, Wistar, rat, ip, 0.3 mg/kg i.p., single
[12] = male, Wistar, rat, ip, 0.3 mg/kg, 0.3 mg/kg i.p., single
[13] = male, Wistar, rat, ip, 1.0 mg/kg i.p., single
[14] = male, Wistar, rat, ip, 1 mg/kg, 1.0 mg/kg i.p., single

CN1CCN(c2nc(N)nc(C(C)(C)Sc3ccc4ccccc4c3)n2)CC1 [WA-22, 4-(4-methylpiperazin-1-yl)-6-(2-(naphthalen-2-ylthio)propan-2-yl)-1,3,5-triazin-2-amine]
neurotoxic effect (MTS) (SH-SY5Y cells [1]): no significant differences
ROS level (Ctr set as 100%) (SH-SY5Y cells [2]; compound 10 μM pretreatment 1 h, then ROT 32.5 μM 3 h): 128%
effect on ROS of compound alone (SH-SY5Y cells [2]; without ROT): did not exert any effect
NRF2 transcription (SH-SY5Y cells [3]): neither WA-22 nor PPK-32 were able to stimulate its transcription
expression of NQO1, SOD1, and HO1 (SH-SY5Y cells [3]): induces the expression of the same genes, although with a lower significance and increase
expression of pro-inflammatory gene NFkB (SH-SY5Y cells [3]): neither WA-22 nor PPK-32 were able to downregulate
protection of cell integrity against membrane destruction caused by Aβ1–42 (HT-22 cell line [4]): neuroprotective activities
decrease of ROS induced by Aβ (HT-22 cell line [5]): only PPK-32 displayed the ability to decrease ROS
Cmax after 1.0 mg/kg i.p. in relation to 0.3 mg/kg i.p. [6]: 3.8 fold
Cmax ([6]; 0.3 mg/kg i.p., single, 0.3 mg/kg): 18.65 ± 1.87 ng/mL
Cmax [6, 10]: 71.05 ± 26.52 ng/mL
Vz/F [6, 10]: 75.43 ± 28.17 L/kg
t1/2λz [6, 10]: 2.8115 ± 0.7785 h
AUC(0-t) [6, 11]: 14 ng·h/mL
CL/F [6, 11]: 255 mL/min/kg
MRT [6, 11]: 1.61 h
Tmax [6, 11]: 5 min
Cmax ([6]; male, Wistar, rat, ip, 0.3 mg/kg, 0.3 mg/kg i.p., single, read-out: Cmax): 18.7 ng/mL
Vd/F [6, 12]: 28.1 ± 6.41 L/kg
half-life [6, 12]: 1.29 ± 0.349 h
AUC(0-inf) ([6]; male, Wistar, rat, ip, 1 mg/kg i.p., single): 55.9 ng·h/mL
AUC(0-t) [6, 13]: 42.3 ng·h/mL
CL/F [6, 13]: 313 mL/min/kg
MRT [6, 13]: 2.7 h
Tmax [6, 13]: 5 min
Cmax ([6]; male, Wistar, rat, ip, 1 mg/kg, 1.0 mg/kg i.p., single, read-out: Cmax): 71.1 ng/mL
Vd/F [6, 14]: 75.4 L/kg
half-life [6, 14]: 2.81 h
permeability PAMPA Pe [7]: 13.8 × 10^–6 cm/s
metabolic stability, % of remaining structure [8]: 74%
hepatotoxic (statistically significant HepG2 viability decrease) (HepG2): >25 µM
mutagenic [9]: no
memory-protective action at doses as low as (rats): 0.3 mg/kg
